Our source for the IC50, inhibition and Kd values is patent publication US9221804B2, “Secondary alcohol quinolinyl modulators of RORγt” (Janssen Pharmaceutica NV, priority 2013, dated 2015).

Molecules are shown by their SMILES.

The test system of assay [1] is IL-17 production by CD4 T cells. Description: Human Th17 Assay. The format is cell-based. The conditions noted are these: human CD4+ T cells under Th17 differentiation, 3 days, IL-17 in supernatant. From the text: The human Th17 assay tests the effect of RORγt modulatory compounds on IL-17 production by CD4 T cells under conditions which favor Th17 differentiation.
Total CD4^+ T cells were isolated from the peripheral blood mononuclear cells (PBMC) of healthy donors using a CD4^+ T cell isolation kit II, following the manufacturer's instructions (Miltenyi Biotec). Cells were resuspended in a medium of RPMI-1640 supplemented with 10% fetal bovine serum, penicillin, streptomycin, glutamate, and β-mercaptoethanol and were added to 96-well plates at 1.5×10^5 per 100 μL per well. 50 μL of compound at titrated concentrations in DMSO were added into each well at final DMSO concentration at 0.2%. Cells were incubated for 1 hour, then 50 μL of Th17 cell differentiation medium was added to each well. […] Supernatants were collected and the accumulated IL-17 in culture was measured by using MULTI-SPOT® Cytokine Plate following manufacture's instruction (Meso Scale Discovery). The plate was read using Sector Imager 6000, and IL-17 concentration was extrapolated from the standard curve. The IC50s were determined by GraphPad.

The next assay concerns the target T1, human RORγt LBD (Homo sapiens, UniProt P51449).
T1 construct: expressed in transfected cells; host or cells: HEK293T
T1 sequence (P51449 258-518): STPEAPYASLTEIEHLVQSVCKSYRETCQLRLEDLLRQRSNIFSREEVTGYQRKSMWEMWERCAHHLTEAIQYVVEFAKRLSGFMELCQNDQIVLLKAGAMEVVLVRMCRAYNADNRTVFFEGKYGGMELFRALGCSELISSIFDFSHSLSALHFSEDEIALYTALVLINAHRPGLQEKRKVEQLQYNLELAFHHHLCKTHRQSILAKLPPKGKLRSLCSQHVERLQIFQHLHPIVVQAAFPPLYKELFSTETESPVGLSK
Description: RORγt (LBD) Reporter Assay (GAL4 luciferase, HEK293T). The format is cell-based. The conditions noted are these: HEK293T cells; for IC50: 24 hours with compound. The procedure: Compounds were assessed for RORgt functional modulation using either the RORgt ligand binding domain (LBD) reporter assay, or the RORgt full-length (FL) reporter assay.
A reporter assay was used to test functional activity of RORγt modulatory compounds on transcriptional activation driven by the RORγt LBD. Cells used in the assay were co-transfected with two constructs. The first construct, pBIND-RORγt LBD, contained the wild type human RORγt LBD fused to the DNA binding domain of the GAL4 protein. The second construct, pGL4.31 (Promega Cat no. C935A), contained multiple GAL4 responsive DNA elements upstream of firefly luciferase. […] The mutant construct was called pBIND-RORγt-AF2.
The pBIND vector contains the GAL4 DNA Binding Domain (GAL4 DBD) and the renilla luciferase gene under control of the SV40 promoter. Renilla luciferase expression serves as a control for transfection efficiency and cell viability.
The reporter assay was performed by transiently transfecting HEK293T cells with 5 μg of pBIND-RORγt LBD or pBIND-RORγt LBD-AF2 and 5 μg pGL4.31 (Promega Cat no. C935A) using Fugene 6 (Invitrogen Cat no. E2691) at a 1:6 ratio of DNA: Fugene 6 in a T-75 flask in which cells were at least 80% confluent. Twenty four hours after bulk transfection, cells were plated into 96-well plates at 50,000 cells/well in phenol-red free DMEM containing 5% Lipid Reduced FCS and Pen/Strep. Six hours after plating, cells were treated with compounds for 24 hours. Media was removed and cells were lysed with 50 μL 1× Glo Lysis Buffer (Promega). Dual Glo Luciferase Reagent (50 μL/well) was then added and firefly luciferase luminescence was read on an Envision after a ten minute incubation. Finally, Stop and Glo reagent (50 μL/well) was added and renilla luciferase luminescence was read on an Envision after a ten minute incubation. To calculate the effect of compounds on RORγt activity, the ratio of firefly to renilla luciferase was determined and plotted against compound concentration. Agonist compounds increase RORγt-driven luciferase expression, and antagonist or inverse agonist compounds decrease luciferase expression.
Background: Reporter assays use an easily measured gene product as a stand-in for the process of interest.

Assay [2] concerns the target T2, human RORγt ligand binding domain (RORγt LBD) (Homo sapiens, UniProt P51449).
T2 construct: His-tag (N); TurboTEV protease cleavage site (ENLYFQG) (N); made in house; host or cells: E. coli (pHIS1, modified pET vector)
T2 sequence (P51449 with tags, fused parts or gaps): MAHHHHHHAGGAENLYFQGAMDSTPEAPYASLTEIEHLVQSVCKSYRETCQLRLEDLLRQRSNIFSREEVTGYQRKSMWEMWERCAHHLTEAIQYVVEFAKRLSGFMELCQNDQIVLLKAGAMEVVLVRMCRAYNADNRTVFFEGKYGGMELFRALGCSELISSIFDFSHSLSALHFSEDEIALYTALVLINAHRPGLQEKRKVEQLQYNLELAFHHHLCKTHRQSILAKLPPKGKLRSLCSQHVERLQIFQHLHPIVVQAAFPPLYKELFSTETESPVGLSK
Description: RORγt ThermoFluor assay (thermal shift binding affinity). The conditions noted are these: 0.065 mg/mL RORγt, pH 7.0; estimated from concentration response curves. As for the experimental part: This approach is applicable to a wide variety of systems, and rigorous in theoretical interpretation through quantitation of equilibrium binding constants (KD).
The shift in the melting point described as a ΔTm is proportional to the concentration and affinity of the ligand. The compound potency may be compared as a rank order of either ΔTm values at a single compound concentration or in terms of KD values, estimated from concentration response curves.
ThermoFluor® experiments were carried out using instruments owned by Janssen Research and Discovery, L.L.C. through its acquisition of 3-Dimensional Pharmaceuticals, Inc. 1,8-ANS (Invitrogen) was used as a fluorescent dye. […]
Fluorescence was measured by continuous illumination with UV light (Hamamatsu LC6) supplied via fiber optic and filtered through a band-pass filter (380-400 nm; >6 OD cutoff). Fluorescence emission of the entire 384-well plate was detected by measuring light intensity using a CCD camera (Sensys, Roper Scientific) filtered to detect 500±25 nm, resulting in simultaneous and independent readings of all 384 wells. Images were collected at each temperature, and the sum of the pixel intensity in a given area of the assay plate was recorded versus temperature. […]

In the case of `COc1nc2ccc(C(O)c3cnnn3C)cc2c(Cl)c1Cc1ccc(-n2cccn2)cc1` (single isomer, unassigned) [Example 5b, (3-(4-(1H-Pyrazol-1-yl)benzyl)-4-chloro-2-methoxyquinolin-6-yl)(1-methyl-1H-1,2,3-triazol-5-yl)methanol], the IC50 – broadly, the midpoint of a concentration-inhibition curve – in assay [1] was found to be 1500 nM. Same read-out and setting: for `COc1nc2ccc(C(O)c3cnnn3C)cc2c(Cl)c1Cc1ccc(-n2cccn2)cc1` (single isomer, unassigned) [Example 5c, (3-(4-(1H-Pyrazol-1-yl)benzyl)-4-chloro-2-methoxyquinolin-6-yl)(1-methyl-1H-1,2,3-triazol-5-yl)methanol] the value was 610 nM. As to `COc1nc2ccc(C(O)c3cnc(C)n3C)cc2c(Cl)c1Cc1ccc(F)cc1` (single isomer, unassigned) [Example 8b], the IC50 on human RORγt LBD is above 6 µM. The inhibition (as a rule, the change of the read-out against control, counted positive when it falls) at 6 µM against human RORγt LBD (HEK-293T, 6 μM compound) was 31%. The Kd (in general, the constant that tells how readily two partners part at equilibrium) in assay [2] is 180 nM.

`COc1nc2ccc(C(O)c3cnc(C)n3C)cc2c(Cl)c1Cc1ccc(F)cc1` (single isomer, unassigned) [Example 8c]: the IC50 at human RORγt LBD is above 6 µM. Besides, in assay [2], the Kd was 95 nM.

Turning to `COc1nc2ccc(C(O)c3cnc(C)n3C)cc2c(Cl)c1Cc1ccc(F)cc1` (centres unmarked) [Example 8a], on human RORγt LBD, the IC50 was above 6 µM.
